# Laboratory results published in US8076374B2 (Eli Lilly and Company, priority 2005, dated 2011).
# pKi: −log10 of the molar value.
# Target: cloned human glucagon receptor (Homo sapiens, UniProt P47871)
# Assay: Glucagon Receptor (hGlucR) Binding Assay
# Experimental: This plasmid DNA is transfected into 293 HEK cells and selected with 200 μg/mL Hygromycin.
# Crude plasma membranes are prepared using cells from suspension culture. The cells are lysed on ice in hypotonic buffer containing 25 mM Tris HCL, pH 7.5, 1 mM MgCl2, DNAsel, 20 u/mL, and Roche Complete Inhibitors-without EDTA. The cell suspension is homogenized with a glass dounce homogenizer using a Teflon pestle for 25 strokes. The homogenate is centrifuged at 4 degrees C. at 1800×g for 15 mins. The supernate is collected and the pellet is resuspended in hypotonic buffer and rehomogenized. The mixture is centrifuged at 1800×g for 15 mins. The second supernate is combined with the first supernate. The combined supernates are recentrifuged at 1800×g for 15 mins to clarify. The clarified supernate is transferred to high speed tubes and centrifuged at 25000×g for 30 minutes at 4 degrees C. The membrane pellet is resuspended in homogenization buffer and stored as frozen aliquots at −80 degree C. freezer until needed.
# The specific activity is 2200 Ci/mmol.
# The binding buffer contains 25 mM Hepes, pH 7.4, 2.5 mM CaCl2, 1 mM MgCl2, 0.1% fatty acid free BSA, (ICN), 0.003% tween-20, and Roche Complete Inhibitors without EDTA. […] Test compounds are dissolved in DMSO and serially diluted in DMSO. […] Plates are read with a MicroBeta after 14 hours of settling time at room temp.
# cloned human glucagon receptor, sequence (P47871 26-477): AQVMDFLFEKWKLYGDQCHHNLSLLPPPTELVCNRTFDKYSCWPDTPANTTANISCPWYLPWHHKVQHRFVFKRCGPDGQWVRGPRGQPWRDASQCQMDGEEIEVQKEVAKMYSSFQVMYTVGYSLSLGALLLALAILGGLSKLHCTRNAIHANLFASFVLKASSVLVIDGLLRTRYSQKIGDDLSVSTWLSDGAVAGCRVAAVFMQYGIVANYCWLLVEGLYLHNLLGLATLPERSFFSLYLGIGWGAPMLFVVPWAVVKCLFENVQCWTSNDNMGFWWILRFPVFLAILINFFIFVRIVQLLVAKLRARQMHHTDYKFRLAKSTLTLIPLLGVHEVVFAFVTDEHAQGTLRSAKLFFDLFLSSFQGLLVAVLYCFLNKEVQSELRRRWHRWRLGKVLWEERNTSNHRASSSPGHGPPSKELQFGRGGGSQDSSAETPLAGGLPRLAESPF
row,Compound,pKi
1,C=CCC(CC=C)(COc1cc(C)c(-c2ccc(C(F)(F)F)cc2)c(C)c1)c1ccc(C(=O)NCCC(=O)O)cc1,7.06
2,Cc1cc(OCC(c2ccc(C(=O)NCCC(=O)O)cc2)C(C)C)cc(C)c1-c1ccc(C(C)(C)C)cc1 (centres unmarked),7.21
